# In patent US12319721B2 (Purdue Research Foundation, priority 2018, dated 2025):
# Bridges are numbered along the chain shown (N, C = ends). Roman numbers before positions name the chains, in order. Where no end group is shown, it is not given here. [ ]: non-standard residue; d: D form. The star is where a group is joined. mini PEG = minipeg spacer; Nle = CCCC[C@H](N)C(=O)O; Octanoyl = CCCCCCCC(=O)*; Dap = NC[C@H](N)C(=O)O
# B1: CNP D10: C-type Natriuretic peptide conjugated with 10 aspartate acids, SEQ ID NO: 7/16, FIG. 30 (peptide)
# chain 1: DDDDDDDDDDGLSKGCFGLKLDRIGSMSGLGC
# chain 2: B1 chain 1
# modifications: disulfide I:16-I:32, II:16-II:32; not fully specified
# B2: VIP D10: Vasoactive intestinal peptide conjugated with D10, SEQ ID NO: 8/17, FIG. 31 (peptide)
# chain 1: HSDAVFTDNYTRLRKQMAVKKYLNSILNDDDDDDDDDD
# chain 2: B2 chain 1
# modifications: 10 aspartates
# Assays:
# healed fractured femur = assay: Femur fracture model, postmortem four-point bend of the healed femur; type: in vivo, Swiss Webster mice
# Text: All in vivo data included herein are from Swiss Webster mice. All mice received an osteotomy on their right femur and received subcutaneous drug administration daily for either 2, 3 or 4 weeks, as indicated, for each compound. 1×concentration represents 1 nmol/day, 10× represents 10 nmol/day, 100×represents 100 nmol/day and most studies have an n of 5.
# The term “Peak Load” means a postmortem 4 point bend of the healed femur. Peak load represents the maximum force the healed femur withstood before it refractured.
# (§1) The targeted conjugates were synthesized using standard Fmoc solid-phase peptide synthesis, as described above. To ensure the conjugates' activity, mouse pre osteo-blast (MCTC3-1) cells were treated with the targeted and untargeted compounds for three days at concentrations from 1 pM to 100 nM. After three days of treatment, the cells were harvested, and the ribonucleic acid (RNA) was purified from the cells. Expression levels of ALP, RUNx2, OSX, osteo-pontin (OPN), collagen 1A (Col-1A), OPG, RANKL, scle-rostin gene (SOST), and OC were quantified via quantitative reverse transcription polymerase chain reaction (RT-qPCR). Once the biological activity of the conjugates was confirmed, they were tested in vivo in a fracture model. Aseptic surgical techniques were used to place a 23-gage needle as in intramedullary nail in the femur of anesthetized, 12-week-old Swiss Webster mice for internal fixation before fracture. Femur fractures were induced using a drop weight fracture device from RISystem. The mice received buprenorphine for three days post fracture. The mice were dosed subcutaneously each day for two weeks, three weeks, 4 weeks, or 17 days. Fracture healing was assessed using microCT (Scanco Medical Ag). Morphometric parameters were quantified in the 100 widest slices of the fracture callus. Trabecular thickness (TbTh), trabecular spacing (TbSp), total volume (TV), and volume of calcified callus (BV) were calculated. Fractured femurs were tested for strength in a four-point bend to failure using an Electro Force TestBench (TA Instruments). Lower supports were 10 mm apart on the anterior face of the femur in contact with the proximal and distal diaphysis. Upper supports were 4 mm apart and spanned the entire fracture callus on the diaphysis. Force was applied from the posterior face of the femur with a displacement rate of 0.3 mm/sec. Peak load, yield load, stiffness, displacement post yield, work to fracture, and deformation data were generated. Statistical analysis was performed using a two-way analysis of variance (ANOVA) and a Tukey post-hoc analysis with significance reported at the 95% confidence level. All animal experiments were performed in accordance with protocols approved by Purdue University's Institutional Animal Care and Use Committee (IACUC).
# [1] = tested on: fracture callus of fractured femur; assay: Femur fracture model, microCT of the fracture callus (BV/TV, BV, TbTh, TbSp); type: in vivo, Swiss Webster mice
# Text: All in vivo data included herein are from Swiss Webster mice. […] 1×concentration represents 1 nmol/day, 10× represents 10 nmol/day, 100×represents 100 nmol/day and most studies have an n of 5.
# The term “BV/TV” means the bone volume divided by total volume of the 100 thickest micro CT slices of the fracture callus.
# The term “TbTh” means the trabecular thickness of the 100 thickest micro CT slices of the fracture callus.
# The term “[…]” means the overall bone volume of the 100 thickest micro CT slices of the fracture callus.
# The term “TbSp” means the spacing between the trabecula in the 100 thickest micro CT slices of the fracture callus.
# as §1, with “The mice were dosed subcutaneously each day for two weeks, three weeks, 4 weeks, or 17 days.” left out
# [2] = 3 weeks, 0.1, 1 and 10 nmol daily subcutaneous, n=5
# [3] = 3 weeks, 0.1, 1 and 10 nmol daily subcutaneous
# [4] = 2 weeks, various concentrations 1-100 nmol/day, subcutaneous daily
# [5] = 3 weeks, 1, 10 and 100 nmol daily subcutaneous, n=5
# [6] = 4 weeks, various concentrations (1, 10 and in part 100 nmol/day), subcutaneous daily
# [7] = 1 μmol/kg, subcutaneous, every-other-day, CFW Swiss Webster mice
molecule,measurement,setting,value
"B2A_mp4_(D)E10: two B2A branches (SEQ ID NO: 44) conjugated to e10 (D-glutamic acids), SEQ ID NO: 19, FIG. 35 (AIS[Nle]LYLDENEKVVLK; not fully specified; also: C-terminal Lys carries branching Lys-Ahx3-D-Glu10 moiety)",Max load (bone strength),healed fractured femur; [2],raises bone strength
same,Work to fracture (bone strength),healed fractured femur; [2],raises bone strength
same,BV/TV (bone density),[1]; [3],raises bone density
same,"BV (bone volume, bone mineralization)",[1]; [2],raises bone mineralization
"BFP-D10: bone forming peptide conjugated with 10 aspartate acids, SEQ ID NO: 1, DDDDDDDDDDGQGFSYPYKA VFSTQ (DDDDDDDDDDGQGFSYPYKAVFSTQ; 10 aspartates)","Peak load of fractured femurs (ranking, compared to PBS)","healed fractured femur; after 2 weeks, 100 nmol/day (100×)",obtained the maximum peak load
same,BV/TV,[1]; [4],dose dependent manner
same,TbSp,[1]; [4],dose dependent manner
"CBM D10: collagen binding motif of osteopontin conjugated with 10 aspartate acids, SEQ ID NO: 9, FIG. 33",BV/TV (bone density),[1]; [3],dose dependent manner
"F2A_mp4_(D)E10: two copies of FGF2 receptor targeting sequence YRSRKYSSWYVALKR branching from a lysine, 4 mini pegs, 10 D glutamic acids",Max load (bone strength),healed fractured femur; [2],raises bone strength
same,Work to fracture (bone strength),healed fractured femur; [2],raises bone strength
same,BV/TV (bone density),[1]; [3],raises bone density
same,"BV (bone volume, bone mineralization)",[1]; [2],raises bone mineralization
"F119_mp4 (D)E10: heparin binding fragment 119-135 of FGF2 with mp4 linker and 10 glutamic acids, SEQ ID NO: 20, FIG. 84 (KRTGQYKLGSKTGPGQK; mp4 linker, 10 D-glutamic acids; SITE 17 C-term Lysine modified with 4 mini PEG linker-d(Glutamic acid)10 moiety)",Max load (bone strength),healed fractured femur; [5],raises bone strength
same,Work to fracture (bone strength),healed fractured femur; [5],raises bone strength
same,"BV (bone volume, bone mineralization)",[1]; [5],raises bone mineralization
same,BV/TV (bone density),[1]; [5],raises bone density
"Ghrelin-D 10: Ghrelin D10 with Ser-3 replaced with diaminopropionic acid modified with an octanoyl group sidechain, SEQ ID NO: 5 (GS[Dap](Octanoyl)FLSPEHQKAQQRKESKKPPAKLQPRDDDDDDDDDD)",BV/TV,[1]; [6],dose dependent manner
"JNK3_Mp4_(D)E10: 25-residue arrestin-3 peptide (JNK3) with mp4 linker and 10 glutamic acids, SEQ ID NO: 21, FIG. 49 (MGEKPGTRVFKKSSPNCKLTVYLGK; mp4 linker, 10 D-glutamic acids; SITE 25 C-term Lysine modified with 4 mini PEG linker-d(Glutamic acid)10 moiety)",Max load (bone strength),healed fractured femur; [2],raises bone strength
same,Work to fracture (bone strength),healed fractured femur; [2],raises bone strength
same,BV/TV (bone density),[1]; [3],raises bone density
same,"BV (bone volume, bone mineralization)",[1]; [2],raises bone mineralization
"MGF D10: Mechano-growth factor conjugated with 10 aspartate acids, SEQ ID NO: 11, DDDDDDDDDDYQPPSTNKNTKSQRRKGSTFEEHK (10 aspartates)",BV/TV,[1]; [6],dose dependent manner
"ODP D10: Osteopontin-derived peptide conjugated with 10 aspartate acids via 4 mini PEG, SEQ ID NO: 13 (DDDDDDDDDD[mini PEG][mini PEG][mini PEG][mini PEG]DVDVPDGRGDSLAYG)",BV/TV,"[1]; 4 weeks, 1 nmol/day (1×)",healing was reflected as BV/TV
"OGP-D10: osteogenic growth peptide conjugated with 10 aspartate acids, SEQ ID NO: 2, DDDDDDDDDDALKRQGRTL YGFGG (DDDDDDDDDDALKRQGRTLYGFGG; 10 aspartates)",BV/TV,[1]; [4],dose dependent manner
same,TbSp,[1]; [4],dose dependent manner
same,TbTh,[1]; [4],dose dependent manner
"Osteostatin_mp4_(D)E10: Osteostatin (PTHrP[107-139]) with 10 glutamic acids, SEQ ID NO: 23, FIG. 59",Max load (bone strength),healed fractured femur; [2],raises bone strength
same,Stiffness,healed fractured femur; [2],raises bone stiffness
same,Work to fracture (bone strength),healed fractured femur; [2],raises bone strength
same,BV/TV (bone density),[1]; [3],raises bone density
same,"Tbth (trabecular thickness, bone quality)",[1]; [2],raises bone quality
"P4 D10: P4 (BMP-2 knuckle epitope fragment) conjugated with 10 aspartate acids, SEQ ID NO: 10 (HKIPKASSVPTELSAISTLYLDDDDDDDDDD; 10 aspartates)",BV/TV,[1]; [6],dose dependent manner
"Preptin D10: Preptin conjugated with 10 aspartate acids, SEQ ID NO: 3, FIG. 29 (DVSTSQAVLPDDFPRYDDDDDDDDDD; 10 aspartates)",BV/TV,[1]; [4],dose dependent manner
same,TbTh,[1]; [4],dose dependent manner
same,bone volume (BV),[1]; [4],dose dependent manner
"pBMP9 D 10: peptide from BMP-9 knuckle epitope conjugated with D10, SEQ ID NO: 6/14, FIG. 27 (chain 1 CGGKVGKACCVPTKLSPISVLYK; chain 2 CGGKVGKACCVPTKLSPISVLVK; not fully specified (C-terminus); cysteine pairing not given here; also: the two chains differ at position 22 (Y vs V))",bone volume (BV),"[1]; 4 weeks, 1, 10 and 100 nmol/day, subcutaneous daily",dose dependent manner
same,BV/TV,[1]; [6],dose dependent manner
"targeted E738 conjugate: Src inhibitor E738 conjugated with D10 (10 aspartic acids, SEQ ID NO: 30), FIG. 4 (DDDDDDDDDD; not fully specified (C-terminus); also: conjugated to Src inhibitor E738)",Trabecular Thickness at the fracture callus,[1]; [7],significantly improved
same,bone density (BV/TV) at the fracture callus,[1]; [7],significantly improved
B1,BV/TV,[1]; [6],dose dependent manner
B2,BV/TV,"[1]; 4 weeks, 1 nmol/day (1×)",healing was reflected as BV/TV
same,TbTh,"[1]; 4 weeks, 1 nmol/day (1×)",healing was reflected
